pIC50: −log10 of the molar value. Like-named read-outs stand apart in the source and are kept apart here.
What was measured:
CDK2/Cyclin E1 complex = CDK2/Cyclin E1 complex (Homo sapiens, UniProt P24941); experiment: CDK2 inhibition assay (Caliper/LabChip EZ Reader kinase assay); format: biochemical; details: Table 1, CDK2/Cyclin E1 0.5 nM, ATP 2 mM, 35 min at 27° C.
Method in brief: (§1)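 Caliper/LabChip EZ Reader mobility-shift assays. CDK9/Cyclin T1 at 8 nM with 2 μM 5-FAM-CDK9tide peptide and 10 mM MgCl2; CDK2/Cyclin E1 at 0.5 nM with 2 μM 5-FAM-CDK7tide and 2 mM MgCl2.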

CDK9/Cyclin T1 complex = CDK9/Cyclin T1 complex (Homo sapiens, UniProt P50750); experiment: CDK9 inhibition assay (Caliper/LabChip EZ Reader kinase assay); format: biochemical; details: Table 1, CDK9/Cyclin T1 8 nM, ATP 2 mM, 15 min at 27° C.
Sequence of CDK9/Cyclin T1 complex (P50750 whole entry, species assumed): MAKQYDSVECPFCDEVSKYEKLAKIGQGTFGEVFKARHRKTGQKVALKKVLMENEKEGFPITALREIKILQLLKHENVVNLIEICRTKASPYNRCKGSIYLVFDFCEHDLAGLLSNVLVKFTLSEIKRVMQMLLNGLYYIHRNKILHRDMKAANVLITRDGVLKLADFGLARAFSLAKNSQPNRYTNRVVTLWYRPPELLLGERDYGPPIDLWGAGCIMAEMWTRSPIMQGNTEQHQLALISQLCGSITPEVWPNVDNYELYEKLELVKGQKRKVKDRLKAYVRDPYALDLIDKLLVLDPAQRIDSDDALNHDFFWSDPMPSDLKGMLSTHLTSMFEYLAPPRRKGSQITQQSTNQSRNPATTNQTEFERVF
Sequence of CDK9/Cyclin T1 complex (O60563 whole entry partner, species assumed): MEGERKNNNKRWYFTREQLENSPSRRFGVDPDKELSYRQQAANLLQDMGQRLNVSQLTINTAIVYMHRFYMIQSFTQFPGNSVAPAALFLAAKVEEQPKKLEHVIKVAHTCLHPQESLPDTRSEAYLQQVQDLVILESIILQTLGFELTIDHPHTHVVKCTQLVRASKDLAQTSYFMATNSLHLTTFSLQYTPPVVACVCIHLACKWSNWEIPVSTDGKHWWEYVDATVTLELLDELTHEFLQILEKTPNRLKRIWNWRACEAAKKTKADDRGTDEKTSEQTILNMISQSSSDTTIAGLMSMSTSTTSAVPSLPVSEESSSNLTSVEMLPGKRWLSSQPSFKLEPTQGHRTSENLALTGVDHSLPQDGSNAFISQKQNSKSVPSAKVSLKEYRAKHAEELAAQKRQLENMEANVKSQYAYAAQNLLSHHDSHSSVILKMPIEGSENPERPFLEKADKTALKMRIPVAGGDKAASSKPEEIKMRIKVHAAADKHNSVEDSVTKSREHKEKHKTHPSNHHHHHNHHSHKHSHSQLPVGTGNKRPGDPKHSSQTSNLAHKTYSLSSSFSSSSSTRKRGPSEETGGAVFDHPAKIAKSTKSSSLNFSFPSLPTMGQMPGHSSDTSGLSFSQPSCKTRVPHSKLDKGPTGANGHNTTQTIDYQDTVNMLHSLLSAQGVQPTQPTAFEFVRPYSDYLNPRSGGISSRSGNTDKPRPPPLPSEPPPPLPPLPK
Method in brief: as §1

[1] = target: CDK7/Cyclin H/MAT1 complex (Homo sapiens, UniProt P50613); experiment: CDK7 inhibition assay (Caliper/LabChip EZ Reader kinase assay); format: biochemical; details: Table 1, CDK7/Cyclin H/MAT1 6 nM, ATP 2 mM, 35 min at 27° C.
Sequence of CDK7/Cyclin H/MAT1 complex (P50613 whole entry, species assumed): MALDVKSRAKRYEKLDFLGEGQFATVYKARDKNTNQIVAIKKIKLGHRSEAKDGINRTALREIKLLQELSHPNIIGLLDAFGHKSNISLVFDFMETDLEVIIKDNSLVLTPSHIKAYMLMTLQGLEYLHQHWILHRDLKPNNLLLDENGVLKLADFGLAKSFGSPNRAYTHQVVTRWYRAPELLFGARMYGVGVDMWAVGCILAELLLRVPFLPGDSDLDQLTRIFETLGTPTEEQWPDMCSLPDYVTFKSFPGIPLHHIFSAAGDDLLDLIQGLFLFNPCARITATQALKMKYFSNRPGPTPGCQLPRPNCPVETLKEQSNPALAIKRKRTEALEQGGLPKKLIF
Sequence of CDK7/Cyclin H/MAT1 complex (P51946 whole entry partner, species assumed): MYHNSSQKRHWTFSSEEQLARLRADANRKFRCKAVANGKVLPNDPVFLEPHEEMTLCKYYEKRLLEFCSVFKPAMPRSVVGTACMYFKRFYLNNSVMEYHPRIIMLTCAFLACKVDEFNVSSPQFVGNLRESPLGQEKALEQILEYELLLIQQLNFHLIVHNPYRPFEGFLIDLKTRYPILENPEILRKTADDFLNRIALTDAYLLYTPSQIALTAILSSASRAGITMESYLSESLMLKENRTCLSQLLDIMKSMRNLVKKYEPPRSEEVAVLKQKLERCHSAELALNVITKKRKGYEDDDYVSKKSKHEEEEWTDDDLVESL
Sequence of CDK7/Cyclin H/MAT1 complex (P51948 whole entry partner, species assumed): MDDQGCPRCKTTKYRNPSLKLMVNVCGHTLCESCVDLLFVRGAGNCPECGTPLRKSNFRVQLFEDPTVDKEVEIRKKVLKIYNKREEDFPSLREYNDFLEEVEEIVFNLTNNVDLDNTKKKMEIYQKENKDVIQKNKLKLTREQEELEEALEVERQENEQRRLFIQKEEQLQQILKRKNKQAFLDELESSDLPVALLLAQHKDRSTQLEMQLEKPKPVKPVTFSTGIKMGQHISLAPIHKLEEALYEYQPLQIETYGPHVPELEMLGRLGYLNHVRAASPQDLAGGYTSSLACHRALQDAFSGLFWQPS
Method in brief: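 A Perkin Elmer Caliper/LabChip EZ Reader (Waltham, MA) platform served as the basis for this CDK7 kinase inhibition assay. The work was carried out by Biortus Biosciences, located in Jiangyin, Jiangsu Province, P.R. of China. Each CDK studied had its own kinase assay, and compounds were evaluated for their ability to block CDK7 activity.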

HCC70 cells = experiment: Inhibition of proliferation of HCC70 cells (CyQUANT Direct Cell Proliferation Assay, 72 hour); format: cell-based, human
Method in brief: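 Human triple-negative breast cancer HCC70 cells cultured at 37° C, 5% CO2, with compound for 72 hour. Anti-proliferative effect read by CyQUANT Direct Cell Proliferation Assay. Dinaciclib, a CDK inhibitor analog and triptolide served as positive controls.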

[2] = target: T1, CDK12 (aa686-1082)/Cyclin K complex (Homo sapiens, UniProt Q9NYV4); experiment: CDK12 inhibition assay (Caliper/LabChip EZ Reader kinase assay); format: biochemical; details: Table 1, CDK12 (aa686-1082)/Cyclin K 50 nM, ATP 2 mM, 3 hr at 27° C.
T1 construct: CDK12 (aa686-1082)/Cyclin K complex
T1 sequence (Q9NYV4 686-1082, species assumed): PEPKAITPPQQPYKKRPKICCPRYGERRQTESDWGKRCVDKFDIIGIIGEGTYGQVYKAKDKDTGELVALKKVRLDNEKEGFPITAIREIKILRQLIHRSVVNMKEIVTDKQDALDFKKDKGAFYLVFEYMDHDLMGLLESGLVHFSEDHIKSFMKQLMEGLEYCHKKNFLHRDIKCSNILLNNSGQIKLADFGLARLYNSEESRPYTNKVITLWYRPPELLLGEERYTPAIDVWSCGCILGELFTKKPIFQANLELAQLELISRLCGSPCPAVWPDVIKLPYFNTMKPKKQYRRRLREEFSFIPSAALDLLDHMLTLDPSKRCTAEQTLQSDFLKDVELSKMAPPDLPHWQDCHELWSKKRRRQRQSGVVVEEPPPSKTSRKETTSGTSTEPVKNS
T1 sequence (O75909 whole entry partner, species assumed, the tested form may be a part): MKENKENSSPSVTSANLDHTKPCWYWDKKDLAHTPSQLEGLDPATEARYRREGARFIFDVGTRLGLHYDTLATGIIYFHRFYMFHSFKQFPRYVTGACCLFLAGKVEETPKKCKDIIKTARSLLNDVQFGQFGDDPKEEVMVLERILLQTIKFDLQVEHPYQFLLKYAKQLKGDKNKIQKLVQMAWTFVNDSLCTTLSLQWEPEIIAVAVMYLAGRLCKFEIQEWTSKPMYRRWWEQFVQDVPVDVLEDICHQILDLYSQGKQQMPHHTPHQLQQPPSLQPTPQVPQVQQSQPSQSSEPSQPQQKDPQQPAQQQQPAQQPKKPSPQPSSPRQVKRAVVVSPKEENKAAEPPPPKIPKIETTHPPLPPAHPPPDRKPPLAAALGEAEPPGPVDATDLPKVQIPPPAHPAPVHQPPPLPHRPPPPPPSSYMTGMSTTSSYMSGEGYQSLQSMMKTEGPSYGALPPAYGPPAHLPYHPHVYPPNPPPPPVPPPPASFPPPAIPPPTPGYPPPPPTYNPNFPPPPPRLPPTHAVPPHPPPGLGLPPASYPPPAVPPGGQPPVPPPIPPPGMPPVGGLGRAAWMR

A673 cells = experiment: Inhibition of proliferation of A673 cells (CyQUANT, 72 hour); format: cell-based, human; details: A673 cells, 72 hour, CyQUANT, read-out: Inhibition of Proliferation of A673 Cells (calculated IC50)
Method in brief: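 Human Ewing's sarcoma A673 cells in DMEM with 10% FBS and 1 mM sodium pyruvate, 37° C, 5% CO2, treated 72 h with compound from 4 μM to […] (0.5 log dilutions). Antiproliferative effect read by CyQUANT assay.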

[3] = Homo sapiens, HCC70, 72 h, read-out: Inhibition of Proliferation of HCC70 Cells (calculated IC50)

SMILES | pIC50 (CDK2/Cyclin E1 complex) | pIC50 (CDK9/Cyclin T1 complex) | pIC50 [1] | pIC50 [2] | pIC50 (HCC70 cells; [3]) | pIC50 (A673 cells; Homo sapiens, A673, 72 h) | also measured
CCc1cnc(N[C@H]2CCCNC2)nc1-c1n[nH]c2nc(C#N)ccc12 [Compound 277, (S)-3-(5-ethyl-2-(piperidin-3-ylamino)pyrimidin-4-yl)-1H-pyrazolo[3,4-b]pyridine-6-carbonitrile] | 5.30 to 6.70 | 5.30 to 6.70 | > 7.70 | 5.30 to 6.70 | 6.00 to 7.00 | 6.70 to 7.70 | 
N#Cc1ccc2c(-c3nc(N[C@H]4CCCNC4)ncc3C(F)(F)F)c[nH]c2c1-c1ccnnc1 [Compound 261, 3-[2-[[(3S)-3-piperidyl]amino]-5-(trifluoromethyl)pyrimidin-4-yl]-7-pyridazin-4-yl-1H-indole-6-carbonitrile] | 5.30 to 6.70 | 5.30 to 6.70 | 6.70 to 7.70 | 5.30 to 6.70 | > 7.00 | > 7.70 | 
C[C@H]1CCNC[C@H]1Nc1ncc(C(F)(F)F)c(-c2c[nH]c3ccccc23)n1 [Compound 285] | < 5.30 | < 5.30 | 5.30 to 6.70 | < 5.30 | > 7.00 | > 7.70 | 
O=C(c1ccc2c(-c3nc(N[C@H]4CCCNC4)ncc3C(F)(F)F)c[nH]c2c1)N1CCCC1 [Compound 278, [3-[2-[[(3S)-3-piperidyl]amino]-5-(trifluoromethyl)pyrimidin-4-yl]-1H-indol-6-yl]-Pyrrolidin-1-yl-methanone] | 5.30 to 6.70 | < 5.30 | 6.70 to 7.70 | 5.30 to 6.70 | 6.00 to 7.00 | 6.70 to 7.70 | 
CCc1cnc(N[C@H]2CCCNC2)nc1-c1c[nH]c2nc(C#N)ccc12 [Compound 287, (S)-3-(5-ethyl-2-(piperidin-3-ylamino)pyrimidin-4-yl)-1H-pyrrolo[2,3-b]pyridine-6-carbonitrile] | < 5.30 | < 5.30 | > 7.70 | < 5.30 | 6.00 to 7.00 | 6.70 to 7.70 | 
Cc1n[nH]cc1-c1cccc2c(-c3nc(NC4CCCNC4)ncc3C(F)(F)F)c[nH]c12 (stereo in doubt) [Compound 175] | 5.30 to 6.70 | 6.70 to 7.70 | > 7.70 | 5.30 to 6.70 | 5.30 to 6.00 | > 7.70 | 
FC(F)n1ccc(-c2ccc3c(-c4nc(N[C@H]5CCCNC5)ncc4C(F)(F)F)c[nH]c3c2)n1 [Compound 289, 4-[6-[1-(difluoromethyl)pyrazol-3-yl]-1H-indol-3-yl]-N-[(3S)-3-piperidyl]-5-(trifluoromethyl) pyrimidin-2-amine] | 5.30 to 6.70 | 5.30 to 6.70 | 6.70 to 7.70 | 5.30 to 6.70 | 6.00 to 7.00 | 6.70 to 7.70 | 
FC(F)(F)c1cnc(N[C@H]2CCCNC2)nc1-c1c[nH]c2c(-c3ccnnc3)cccc12 [Compound 180] | 6.70 to 7.70 | 5.30 to 6.70 | > 7.70 | 6.70 to 7.70 | > 7.00 | > 7.70 | 
CN1CCN(c2cccc3c(-c4nc(N[C@H]5CCCNC5)ncc4C(F)(F)F)c[nH]c23)C1=O [Compound 176] | 5.30 to 6.70 | 5.30 to 6.70 | > 7.70 | 5.30 to 6.70 | 6.00 to 7.00 | > 7.70 | 
CCS(=O)(=O)c1cccc2c(-c3nc(N[C@H]4CCCNC4)ncc3C(F)(F)F)c[nH]c12 [Compound 286] | 5.30 to 6.70 | 5.30 to 6.70 | > 7.70 | 5.30 to 6.70 | 5.30 to 6.00 | 5.30 to 6.70 | 
Cn1cc(-c2nc(NC3CCCNC3)ncc2C(F)(F)F)c2cccc(C#N)c21 (centres unmarked) [Compound 279] | < 5.30 | < 5.30 | 6.70 to 7.70 | < 5.30 | 5.30 to 6.00 | 5.30 to 6.70 | 

Second part, led by results:

pIC50 (CDK2/Cyclin E1 complex) | pIC50 (CDK9/Cyclin T1 complex) | pIC50 [1] | pIC50 [2] | SMILES | pIC50 (HCC70 cells; [3]) | pIC50 (A673 cells; Homo sapiens, A673, 72 h) | also measured
< 5.30 | < 5.30 | 6.70 to 7.70 | < 5.30 | O=S1(=O)CCn2cc(-c3nc(N[C@H]4CCCNC4)ncc3C(F)(F)F)c3cccc1c32 [Compound 348, (S)-6-(2-(piperidin-3-ylamino)-5-(trifluoromethyl)pyrimidin-4-yl)-2,3-dihydro-[1,4]thiazino[2,3,4-hi]indole 1,1-dioxide] | 6.00 to 7.00 |  | pIC50 (CDK2/Cyclin E1 complex; listed as 117): 5.30 to 6.70; pIC50 (CDK9/Cyclin T1 complex; listed as 117): 5.30 to 6.70; pIC50 ([1]; listed as 117): 6.70 to 7.70; pIC50 ([2]; listed as 117): 5.30 to 6.70; pIC50 (A673 cells): 6.70 to 7.70
5.30 to 6.70 | < 5.30 | 6.70 to 7.70 | 5.30 to 6.70 | O=C(O)c1ccc2c(-c3nc(N[C@H]4CCCNC4)ncc3C(F)(F)F)c[nH]c2c1 [Compound 306, 3-[2-[[(3S)-3-piperidyl]amino]-5-(trifluoromethyl)pyrimidin-4-yl]-1H-indole-6-Carboxylic acid] | 6.00 to 7.00 |  | pIC50 (CDK2/Cyclin E1 complex; listed as 114): 5.30 to 6.70; pIC50 (CDK9/Cyclin T1 complex; listed as 114): 5.30 to 6.70; pIC50 ([1]; listed as 114): 6.70 to 7.70; pIC50 ([2]; listed as 114): 5.30 to 6.70; pIC50 (A673 cells): 6.70 to 7.70
< 5.30 | < 5.30 | 5.30 to 6.70 | < 5.30 | FC(F)(F)c1cnc(N[C@H]2CCCNC2)nc1-c1c[nH]c2cc(-c3cccc(Oc4ccccc4)c3)ccc12 [Compound 341, 4-[6-(3-phenoxyphenyl)-1H-indol-3-yl]-N-[(3S)-3-piperidyl]-5 (trifluoromethyl) pyrimidin-2-amine] | 5.30 to 6.00 |  | pIC50 (CDK2/Cyclin E1 complex; listed as 141): 5.30 to 6.70; pIC50 (CDK9/Cyclin T1 complex; listed as 141): 5.30 to 6.70; pIC50 ([1]; listed as 141): > 7.70; pIC50 (HCC70 cells; listed as 141, read-out: Inhibition of Proliferation of HCC70 Cells (calculated IC50)): > 7.00; pIC50 ([2]; listed as 141): 5.30 to 6.70; pIC50 (A673 cells): > 7.70
5.30 to 6.70 | 5.30 to 6.70 | 6.70 to 7.70 | 5.30 to 6.70 | FC(F)n1cc(-c2ccc3c(-c4nc(N[C@H]5CCCNC5)ncc4C(F)(F)F)c[nH]c3c2)cn1 [Compound 290, 4-[6-[1-(difluoromethyl)pyrazol-4-yl]-1H-indol-3-yl]-N-[(3S)-3-piperidyl]-5-(trifluoromethyl) pyrimidin-2-amine] | 6.00 to 7.00 | 6.70 to 7.70 | 
5.30 to 6.70 | 5.30 to 6.70 | > 7.70 | 5.30 to 6.70 | Cn1ccc(-c2ccc3c(-c4nc(N[C@H]5CCCNC5)ncc4C(F)(F)F)c[nH]c3c2)n1 [Compound 303, 4-[6-(1-methylpyrazol-3-yl)-1H-indol-3-yl]-N-[(3S)-3-piperidyl]-5-(trifluoromethyl) pyrimidin-2-amine] | 6.00 to 7.00 |  | pIC50 (CDK2/Cyclin E1 complex; listed as 113): < 5.30; pIC50 (CDK9/Cyclin T1 complex; listed as 113): < 5.30; pIC50 ([1]; listed as 113): 6.70 to 7.70; pIC50 ([2]; listed as 113): 5.30 to 6.70; pIC50 (A673 cells): 5.30 to 6.70

Reference: patent US20240360165A1, “INHIBITORS OF CYCLIN DEPENDENT KINASE 7 (CDK7)” (Syros Pharmaceuticals, Inc., priority 2016, published 2024)
